Structures can show the parent of a compound that is named as a salt.
Columns and labels:
α1B adrenoceptor = target: T1, α1B adrenoceptor (Rattus norvegicus, UniProt P15823); assay: Binding to α1B adrenoceptor, [3H] prazosin, rat liver crude membrane preparation; details: 0.5 nM [3H] prazosin, 25° C., 30 minutes
T1 construct: a 100,000×g precipitation fraction was prepared from a rat liver and this was used as a crude membrane preparation; from tissue; host or cells: liver of Sprague-Dawley male rat, crude membrane preparation
T1 sequence (P15823 1-515): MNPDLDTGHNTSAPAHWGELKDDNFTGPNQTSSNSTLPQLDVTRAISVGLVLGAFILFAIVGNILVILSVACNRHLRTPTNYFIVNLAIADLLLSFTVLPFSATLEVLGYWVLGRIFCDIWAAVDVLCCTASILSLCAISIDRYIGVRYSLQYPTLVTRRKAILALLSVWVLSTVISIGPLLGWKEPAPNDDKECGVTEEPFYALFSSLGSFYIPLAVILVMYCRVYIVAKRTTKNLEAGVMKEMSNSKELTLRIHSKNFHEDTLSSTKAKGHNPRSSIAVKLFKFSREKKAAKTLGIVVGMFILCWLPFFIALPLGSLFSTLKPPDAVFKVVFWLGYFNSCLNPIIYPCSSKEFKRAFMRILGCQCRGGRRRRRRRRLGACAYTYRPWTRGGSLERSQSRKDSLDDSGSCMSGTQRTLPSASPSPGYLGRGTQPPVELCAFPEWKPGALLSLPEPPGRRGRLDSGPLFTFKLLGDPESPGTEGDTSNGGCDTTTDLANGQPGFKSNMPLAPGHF
Procedure: As an α1B adrenoceptor preparation, a 100,000×g precipitation fraction was prepared from a rat liver and this was used as a crude membrane preparation in the experiment.
A Sprague-Dawley male rat was exsanguinated under ether anesthesia, and the liver was isolated, was weighed and was cut into pieces with scissors. The cut liver was put into a Potter-Elvehjem type Teflon homogenizer, and was homogenized with 9 times by volume (9 mL per 1 g of the wet weight of the liver) of a 50 mM Tris-HCl buffer (pH 7.4) containing 0.25 M sucrose, 10 mM MgCl2, 1 mM EDTA, 0.2 mM DTT, and 0.1 mM PMSF. The homogenate was centrifuged at 800×g for 10 minutes, and the resulting supernatant was centrifuged at 100,000×g for 10 minutes, and the supernatant was then further centrifuged at 100,000×g for 60 minutes. The precipitate obtained by centrifugation was suspended in a 50 mM Tris-HCl buffer (pH=7.4) (Buffer A) containing 10 mM MgCl2, 0.2 mM DTT, and 0.1 mM PMSF to a protein concentration of about 10 mg/mL, and the suspension was used as the crude membrane preparation.
(§1) Each of the crude membrane preparations was dispensed and was stored at −80° C. and was subjected to the experiment on use. The protein concentration was determined by Lowry method using bovine serum albumin as a standard.
(§2) Buffer A (400 μL) containing 0.5 nM [3H] prazosin and 200 μg crude membrane preparation was used as a standard reaction solution. The receptor preparation and [3H] prazosin were incubated at 25° C. for 30 minutes, and 2 mL of cold Buffer A was added to terminate the reaction. […] The same experimental procedure was performed in the presence of 10 μM phentolamine to thereby determine a nonspecific binding activity. A specific binding activity was calculated by subtracting the nonspecific binding activity from the total binding activity.
(§3) A solution ofa test drug was prepared by dissolving the test drug to 10 mM in distilled water, ethanol, or DMSO, and serially diluting the solution with distilled water.
(§4) Kd values and Bmax values were determined using Scatchard plots. Dissociation constant Ki (riM) of each compound was determined according to the following equation.
(§5) Ki=IC50/[1+(radioactive ligand concentration/Kd)]

α1A adrenoceptor = target: T2, α1A adrenoceptor (Rattus norvegicus, UniProt P43140); assay: Binding to α1A adrenoceptor, [3H] prazosin, rat submaxillary gland crude membrane preparation; details: 0.5 nM [3H] prazosin, 25° C., 30 minutes
T2 construct: a 43,000×g precipitation fraction was prepared from a rat submaxillary gland, and this was used as a crude membrane preparation; from tissue; host or cells: submaxillary gland of Sprague-Dawley male rat, crude membrane preparation
T2 sequence (P43140 1-466): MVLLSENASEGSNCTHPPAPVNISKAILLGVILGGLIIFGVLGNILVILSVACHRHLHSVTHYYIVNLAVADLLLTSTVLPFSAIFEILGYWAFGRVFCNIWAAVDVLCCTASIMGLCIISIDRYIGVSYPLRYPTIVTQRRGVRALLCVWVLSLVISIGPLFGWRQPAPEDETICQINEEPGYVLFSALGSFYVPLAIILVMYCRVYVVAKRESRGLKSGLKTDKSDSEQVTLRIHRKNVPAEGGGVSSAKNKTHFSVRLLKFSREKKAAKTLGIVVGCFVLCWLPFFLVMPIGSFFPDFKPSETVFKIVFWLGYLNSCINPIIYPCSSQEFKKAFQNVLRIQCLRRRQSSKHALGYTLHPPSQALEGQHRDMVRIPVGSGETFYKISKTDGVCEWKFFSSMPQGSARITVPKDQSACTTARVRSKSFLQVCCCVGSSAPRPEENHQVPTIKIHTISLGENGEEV
Procedure: All experiments were performed at temperatures between 0° C. and 4° C. As an α1A adrenoceptor preparation, a 43,000×g precipitation fraction was prepared from a rat submaxillary gland, and this was used as a crude membrane preparation in the experiment.
A Sprague-Dawley male rat was exsanguinated under ether anesthesia, and the submaxillary gland was isolated, was weighed and was cut to pieces with scissors. The cut gland was put into a Potter-Elvehjem type Teflon homogenizer, and was homogenized with 5 times by volume (5 mL per 1 g of the wet weight of the submaxillary gland) of a 50 mM Tris-HCl buffer (pH=7.4) containing 5 mM EDTA, 0.2 mM DTT, and 0.1 mM PMSF. The resulting homogenate was allowed to pass through a nylon mesh and was centrifuged at 800×g for 10 minutes, and the resulting supernatant was centrifuged at 43,000×g for 15 minutes. The precipitate was suspended in a 50 mM Tris-HCl buffer (pH=7.4) (Buffer A) containing 10 mM MgCl2, 0.2 mM DTT, and 0.1 mM PMSF and was then centrifuged at 43,000×g for 15 minutes. The resulting precipitate was suspended in Buffer A to a protein concentration of about 10 mg/mL, and the suspension was used as the crude membrane preparation.
as §1, §2, §3, §4, §5

[1] = test system: vasopressor response induced by phenylephrine (an α1 adrenoceptor agonist); assay: Inhibitory activity against vasopressor response induced by phenylephrine in rats under anesthesia; assay type: in vivo, rat; details: continuous i.v. infusion, 15 minutes after administration, phenylephrine 3 μg/kg, mean ± standard error
Procedure: The inhibitory activity of the α1B adrenoceptor antagonist according to Example 23 against vasopressor response induced by phenylephrine (an α1 adrenoceptor agonist) in rats under anesthesia was studied. […] The compound was dissolved in physiological saline, and was infused into the femoral vein at a rate of 20 μl/kg/min. Phenylephrine was dissolved in physiological saline and was bolus injected at a dose of 0.2 ml/kg (3 μg/kg). The inhibition rate was calculated according to the following equation.
Inhibition rate (7)=[1—(pressure increase induced by phenylephrine 15 minutes after administration of the example compound)/(pressure increase induced by phenylephrine before administration of the example compound)]×100

| SMILES | Ki (α1B adrenoceptor) [nM] | Ki (α1A adrenoceptor) [nM] | Inhibition rate ([1]; dose 0.1 mg/kg/min) [%] | Inhibition rate ([1]; dose 0.3 mg/kg/min) [%] | Inhibition rate ([1]; dose 1 mg/kg/min) [%] | Inhibition rate ([1]; dose 3 mg/kg/min) [%] |
| --- | --- | --- | --- | --- | --- | --- |
| c1ccc2c(c1)CN(CCCN1CCC(c3c[nH]c4ccccc34)CC1)C2 [Example 14, 3-(1-(3-Isoindolin-2-ylpropyl)-4-piperidyl)indole Hydrochloride] | 3.6 | 50 |  |  |  |  |
| c1ccc2c(c1)CN(CCCCN1CCC(c3c[nH]c4ccccc34)CC1)C2 [Example 15, 3-(1-(4-Isoindolin-2-ylbutyl)-4-piperidyl)indole Hydrochloride] | 1.4 | 30 |  |  |  |  |
| c1ccc2c(c1)CN(CCCCCN1CCC(c3c[nH]c4ccccc34)CC1)C2 [Example 16, 3-(1-(5-Isoindolin-2-ylpentyl)-4-piperidyl)indole] | 1.6 | 82 |  |  |  |  |
| Fc1ccc2c(C3CCN(CCCN4CCCCC4)CC3)c[nH]c2c1 [Example 21, 6-Fluoro-3-(1i-(3-Piperidylpropyl)-4-piperidyl)indole Hydrochloride] | 0.63 | 21 |  |  |  |  |
| Fc1ccc2c(C3CCN(CCCN4Cc5ccccc5C4)CC3)c[nH]c2c1 [Example 23, 6-Fluoro-3-(1-(3-Isoindolin-2-ylpropyl)-4-piperidyl)indole Hydrochloride] | 0.79 | 18 | 24 ± 5 | 47 ± 5 | 72 ± 5 | 86 ± 2 |
| c1ccc(C2CCN(CCCN3CCC(c4ccccc4)CC3)CC2)cc1 [Reference Example 21, 4-Phenyl-1-(3-(4-phenylpiperidyl)propyl)piperidine Hydrochloride, reference compound] | 860 | 870 |  |  |  |  |

Reference: patent US6642228B1, “α1b-adrenergic receptor antagonists” (Toray Industries, Inc., priority 1999, dated 2003)
